# Laboratory results: PubChem BioAssay AID1963872 (Molecular Pharmacology Branch, DTP, NCI, 2024)
# “And” between values parts separate entries of the source, which are not always exact repeats. Identical values can stand only once.
# Test system: KRAS patient-derived spheroids with HUVEC/MSC, viability
# Experiment: Anticancer human tumor 519858-162-T-J1-PDC patient-derived colon adenocarcinoma cell line growth inhibition [KRAS2]
# Details: for viability, T/C: stronger effect = lower value
# How it was run: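 Combination screen of spheroid viability in tumor-cell co-cultures with endothelial (HUVEC) and mesenchymal stem cell stroma. Each agent was tested in half-log dilutions, topping at clinical Cmax or at 10 microM without a known Cmax.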
# [1] = curve of first compound, second compound 0.0316 µM
# [2] = curve of first compound, second compound 0.1 µM
# [3] = curve of first compound, second compound 0.316 µM
# [4] = curve of first compound, second compound 1 µM
# [5] = curve of first compound, second compound 3.16 µM
# [6] = second compound 0.0316 µM, first compound 0.0316 µM
# [7] = second compound 0.0316 µM, first compound 0.1 µM
# [8] = second compound 0.0316 µM, first compound 0.316 µM
# [9] = second compound 0.0316 µM, first compound 1 µM
# [10] = second compound 0.0316 µM, first compound 3.16 µM
# [11] = second compound 0.1 µM, first compound 0.01 µM
# [12] = second compound 0.1 µM, first compound 0.0316 µM
# [13] = second compound 0.1 µM, first compound 0.1 µM
# [14] = second compound 0.1 µM, first compound 0.316 µM
# [15] = second compound 0.1 µM, first compound 1 µM
# [16] = second compound 0.1 µM, first compound 3.16 µM
# [17] = second compound 0.316 µM, first compound 0.01 µM
# [18] = second compound 0.316 µM, first compound 0.0316 µM
# [19] = second compound 0.316 µM, first compound 0.1 µM
# [20] = second compound 0.316 µM, first compound 0.316 µM
# [21] = second compound 0.316 µM, first compound 1 µM
# [22] = second compound 0.316 µM, first compound 3.16 µM
# [23] = second compound 1 µM, first compound 0.01 µM
# [24] = second compound 1 µM, first compound 0.0316 µM
# [25] = second compound 1 µM, first compound 0.1 µM
# [26] = second compound 1 µM, first compound 0.316 µM
# [27] = second compound 1 µM, first compound 1 µM
# [28] = second compound 1 µM, first compound 3.16 µM
# [29] = second compound 3.16 µM, first compound 0.01 µM
# [30] = second compound 3.16 µM, first compound 0.0316 µM
# [31] = second compound 3.16 µM, first compound 0.1 µM
# [32] = second compound 3.16 µM, first compound 0.316 µM
# [33] = second compound 3.16 µM, first compound 1 µM
# [34] = second compound 3.16 µM, first compound 3.16 µM
# [35] = curve of first compound, second compound 10 µM
# [36] = second compound 10 µM, first compound 0.01 µM
# [37] = second compound 10 µM, first compound 0.0316 µM
# [38] = second compound 10 µM, first compound 0.1 µM
# [39] = second compound 10 µM, first compound 0.316 µM
# [40] = second compound 10 µM, first compound 1 µM
# [41] = second compound 10 µM, first compound 3.16 µM
# 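Note: compound exposure lasted seven days before readout.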
# 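Throughout, for viability, T/C: 100% = DMSO vehicle control viability.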
compound,measurement,setting,value
CC(=O)OC12COC1CC(O)C1(C)C(=O)C(O)C3=C(C)C(OC(=O)C(O)C(NC(=O)OC(C)(C)C)c4ccccc4)CC(O)(C(OC(=O)c4ccccc4)C21)C3(C)C (centres undefined) + C=CC(=O)N1CCN(c2nc(OCC3CCCN3C)nc3c2CCN(c2cccc4cccc(C)c24)C3)CC1CC#N,IC50,[1],> 3.16 µM
same,IC50,[2],> 3.16 µM
same,IC50,[3],> 3.16 µM
same,IC50,[4],> 3.16 µM
same,IC50,[5],> 3.16 µM
same,"viability, T/C","second compound 0.0316 µM, first compound 0.01 µM",107%
same,"viability, T/C",[6],86%
same,"viability, T/C",[7],92.1%
same,"viability, T/C",[8],85.1%
same,"viability, T/C",[9],70%
same,"viability, T/C",[10],68.5%
same,"viability, T/C",[11],83%
same,"viability, T/C",[12],91.2%
same,"viability, T/C",[13],68.5%
same,"viability, T/C",[14],69.4%
same,"viability, T/C",[15],62.4%
same,"viability, T/C",[16],75.1%
same,"viability, T/C",[17],67.5%
same,"viability, T/C",[18],64.6%
same,"viability, T/C",[19],86.9%
same,"viability, T/C",[20],75%
same,"viability, T/C",[21],58.7%
same,"viability, T/C",[22],70.7%
same,"viability, T/C",[23],54.5%
same,"viability, T/C",[24],84.1%
same,"viability, T/C",[25],74.4%
same,"viability, T/C",[26],73.2%
same,"viability, T/C",[27],47.1%
same,"viability, T/C",[28],74%
same,"viability, T/C",[29],94.1%
same,"viability, T/C",[30],80.1%
same,"viability, T/C",[31],98.4%
same,"viability, T/C",[32],75.1%
same,"viability, T/C",[33],71.5%
same,"viability, T/C",[34],75.4%
CC(C)n1nc(-c2ccc3oc(N)nc3c2)c2c(N)ncnc21 + CC1OCC2(CCN(c3cnc(Sc4ccnc(N)c4Cl)c(N)n3)CC2)C1N,IC50,[2],> 0.1 µM
same,IC50,[3],> 0.1 µM
same,IC50,[4],> 0.1 µM
same,IC50,[5],> 0.1 µM
same,IC50,[35],> 0.1 µM
same,"viability, T/C","second compound 0.1 µM, first compound 0.000316 µM",92.4%
same,"viability, T/C","second compound 0.1 µM, first compound 0.001 µM",90.3%
same,"viability, T/C","second compound 0.1 µM, first compound 0.00316 µM",100%
same,"viability, T/C",[11],89.7%
same,"viability, T/C",[12],86.2%
same,"viability, T/C",[13],77%
same,"viability, T/C","second compound 0.316 µM, first compound 0.000316 µM",104%
same,"viability, T/C","second compound 0.316 µM, first compound 0.001 µM",85.6%
same,"viability, T/C","second compound 0.316 µM, first compound 0.00316 µM",88.6%
same,"viability, T/C",[17],60.8%
same,"viability, T/C",[18],71.3%
same,"viability, T/C",[19],65.5%
same,"viability, T/C","second compound 1 µM, first compound 0.000316 µM",86.5%
same,"viability, T/C","second compound 1 µM, first compound 0.001 µM",84.9%
same,"viability, T/C","second compound 1 µM, first compound 0.00316 µM",78%
same,"viability, T/C",[23],102%
same,"viability, T/C",[24],89.7%
same,"viability, T/C",[25],80.7%
same,"viability, T/C","second compound 3.16 µM, first compound 0.000316 µM",60.2%
same,"viability, T/C","second compound 3.16 µM, first compound 0.001 µM",91.6%
same,"viability, T/C","second compound 3.16 µM, first compound 0.00316 µM",90.1%
same,"viability, T/C",[29],93.9%
same,"viability, T/C",[30],91.8%
same,"viability, T/C",[31],92.9%
same,"viability, T/C","second compound 10 µM, first compound 0.000316 µM",76.8%
same,"viability, T/C","second compound 10 µM, first compound 0.001 µM",85.7%
same,"viability, T/C","second compound 10 µM, first compound 0.00316 µM",89.2%
same,"viability, T/C",[36],105%
same,"viability, T/C",[37],112%
same,"viability, T/C",[38],100%
CC1(C)CCC(CN2CCN(c3ccc(C(=O)NS(=O)(=O)c4ccc(NCC5CCOCC5)c([N+](=O)[O-])c4)c(Oc4cnc5[nH]ccc5c4)c3)CC2)=C(c2ccc(Cl)cc2)C1,"viability, T/C",compound 3.16 µM,79.3% [middle of 5 runs]
same,IC50,curve of compound,> 10 µM and 9.28 µM
CC(=O)OC12COC1CC(O)C1(C)C(=O)C(O)C3=C(C)C(OC(=O)C(O)C(NC(=O)OC(C)(C)C)c4ccccc4)CC(O)(C(OC(=O)c4ccccc4)C21)C3(C)C (centres undefined) + CC1OCC2(CCN(c3cnc(Sc4ccnc(N)c4Cl)c(N)n3)CC2)C1N,IC50,[2],> 3.16 µM
same,IC50,[3],> 3.16 µM
same,IC50,[4],> 3.16 µM
same,IC50,[5],0.261 µM
same,IC50,[35],0.205 µM
same,"viability, T/C",[11],73.8%
same,"viability, T/C",[12],71.1%
same,"viability, T/C",[13],89.4%
same,"viability, T/C",[14],109%
same,"viability, T/C",[15],79.5%
same,"viability, T/C",[16],80.7%
same,"viability, T/C",[17],79.9%
same,"viability, T/C",[18],84.8%
same,"viability, T/C",[19],90.3%
same,"viability, T/C",[20],55.5%
same,"viability, T/C",[21],63.4%
same,"viability, T/C",[22],51.5%
same,"viability, T/C",[23],88.9%
same,"viability, T/C",[24],71.2%
same,"viability, T/C",[25],104%
same,"viability, T/C",[26],81.8%
same,"viability, T/C",[27],83.3%
same,"viability, T/C",[28],101%
same,"viability, T/C",[29],59.6%
same,"viability, T/C",[30],77.2%
same,"viability, T/C",[31],64.7%
same,"viability, T/C",[32],46.9%
same,"viability, T/C",[33],28.5%
same,"viability, T/C",[34],36.3%
same,"viability, T/C",[36],74.3%
same,"viability, T/C",[37],79.8%
same,"viability, T/C",[38],58.8%
same,"viability, T/C",[39],36.1%
same,"viability, T/C",[40],50.6%
same,"viability, T/C",[41],47.4%
COc1cc2nc(C)nc(NC(C)c3cc(N)cc(C(F)(F)F)c3)c2cc1OC1CCOC1 (centres undefined),IC50,"compound alone, run of 07/19/2021",> 10 µM and 8.93 µM
same,IC50,"compound alone, run of 07/26/2021",9.77 µM and > 10 µM and 3.56 µM
COc1cc(Nc2ncc3c(n2)-c2ccc(Cl)cc2C(c2c(F)cccc2OC)=NC3)ccc1C(=O)O + C=CC(=O)N1CCN(c2nc(OCC3CCCN3C)nc3c2CCN(c2cccc4cccc(C)c24)C3)CC1CC#N,IC50,[1],> 10 µM
same,IC50,[2],> 10 µM
same,IC50,[3],> 10 µM
same,IC50,[4],> 10 µM
same,IC50,[5],> 10 µM
same,"viability, T/C",[6],104%
same,"viability, T/C",[7],87.2%
same,"viability, T/C",[8],97.3%
same,"viability, T/C",[9],90.3%
same,"viability, T/C",[10],74.6%
same,"viability, T/C","second compound 0.0316 µM, first compound 10 µM",98%
same,"viability, T/C",[12],89.1%
same,"viability, T/C",[13],82.2%
same,"viability, T/C",[14],102%
same,"viability, T/C",[15],78.8%
same,"viability, T/C",[16],90.5%
same,"viability, T/C","second compound 0.1 µM, first compound 10 µM",130%
same,"viability, T/C",[18],105%
same,"viability, T/C",[19],89.9%
same,"viability, T/C",[20],63.2%
same,"viability, T/C",[21],75%
same,"viability, T/C",[22],82.5%
same,"viability, T/C","second compound 0.316 µM, first compound 10 µM",111%
same,"viability, T/C",[24],103%
same,"viability, T/C",[25],80.8%
same,"viability, T/C",[26],66.8%
same,"viability, T/C",[27],69.2%
same,"viability, T/C",[28],99.8%
same,"viability, T/C","second compound 1 µM, first compound 10 µM",110%
same,"viability, T/C",[30],74.5%
same,"viability, T/C",[31],83%
same,"viability, T/C",[32],75.3%
same,"viability, T/C",[33],77.2%
same,"viability, T/C",[34],109%
same,"viability, T/C","second compound 3.16 µM, first compound 10 µM",74.3%
CC(=O)OC12COC1CC(O)C1(C)C(=O)C(O)C3=C(C)C(OC(=O)C(O)C(NC(=O)OC(C)(C)C)c4ccccc4)CC(O)(C(OC(=O)c4ccccc4)C21)C3(C)C (centres undefined) + COc1cc2nc(C)nc(NC(C)c3cc(N)cc(C(F)(F)F)c3)c2cc1OC1CCOC1,IC50,[2],> 3.16 µM
same,IC50,[3],> 3.16 µM
same,IC50,[4],> 3.16 µM
same,IC50,[5],> 3.16 µM
same,IC50,[35],> 3.16 µM
same,"viability, T/C",[11],123%
same,"viability, T/C",[12],115%
same,"viability, T/C",[13],98.3%
same,"viability, T/C",[14],122%
same,"viability, T/C",[15],92%
same,"viability, T/C",[16],94.6%
same,"viability, T/C",[17],99%
same,"viability, T/C",[18],112%
same,"viability, T/C",[19],99%
same,"viability, T/C",[20],71.6%
same,"viability, T/C",[21],66.9%
same,"viability, T/C",[22],78.9%
same,"viability, T/C",[23],91.3%
same,"viability, T/C",[24],76.1%
same,"viability, T/C",[25],105%
same,"viability, T/C",[26],89.8%
same,"viability, T/C",[27],110%
same,"viability, T/C",[28],90.9%
same,"viability, T/C",[29],72%
same,"viability, T/C",[30],112%
same,"viability, T/C",[31],76.4%
same,"viability, T/C",[32],79.7%
same,"viability, T/C",[33],56.1%
same,"viability, T/C",[34],82.3%
same,"viability, T/C",[36],112%
same,"viability, T/C",[37],97.4%
same,"viability, T/C",[38],65%
same,"viability, T/C",[39],62.7%
same,"viability, T/C",[40],66.5%
same,"viability, T/C",[41],96.8%
